Columns and labels:
[1] = Clearance in monkey after iv administration; format: ADME, organism-based; details: macaca, in vivo
[2] = Volume of distribution at steady state in human after iv administration; format: ADME, organism-based; details: in vivo; for Vd: read-out: Vdss
[3] = Volume of distribution at steady state in dog after iv administration; format: ADME, organism-based, Canis lupus familiaris; details: in vivo, read-out: Vdss
[4] = Clearance in human after iv administration; format: ADME, organism-based; details: in vivo
[5] = Clearance in rat after iv administration; format: ADME, organism-based; details: in vivo
[6] = Volume of distribution at steady state in rat after iv administration; format: ADME, organism-based; details: in vivo
[7] = Volume of distribution at steady state in monkey after iv administration; format: ADME, organism-based; details: macaca, in vivo, read-out: Vdss
[8] = Clearance in dog after iv administration; format: ADME, organism-based, Canis lupus familiaris; details: in vivo

Structure (SMILES)	clearance [1]	Vdss [2]	Vd [3]	clearance [4]	clearance [5]	Vdss [6]	Vd [7]	clearance [8]	Vd [2]
O=[N+]([O-])O[C@H]1CO[C@H]2[C@@H]1OC[C@H]2O[N+](=O)[O-] [ISOSORBIDE DINITRATE]	3.54 L/h/kg	0.05 L/kg	3 L/kg	0.216 L/h/kg	7.08 L/h/kg	4.9 L/kg	1.7 L/kg	10.8 L/h/kg	
CO/N=C(\C(=O)N[C@@H]1C(=O)N2C(C(=O)O)=C(CSc3nc(=O)c(=O)[nH]n3C)CS[C@H]12)c1csc(N)n1 [CEFTRIAXONE]	0.027 L/h/kg		0.24 L/kg	0.0144 L/h/kg	0.24 L/h/kg	0.18 L/kg	0.11 L/kg	0.24 L/h/kg	0.16 L/kg
N=C(N)N1CCC[C@@H](CNC(=O)C[C@H](NS(=O)(=O)c2ccc3ccccc3c2)C(=O)N(CC(=O)O)C2CC2)C1 [NAPSAGATRAN ANHYDROUS]			0.69 L/kg			0.62 L/kg	0.26 L/kg		0.32 L/kg
CC[C@H]1OC(=O)[C@H](C)[C@@H](O[C@H]2C[C@@](C)(OC)[C@@H](O)[C@H](C)O2)[C@H](C)[C@@H](O[C@@H]2O[C@H](C)C[C@H](N(C)C)[C@H]2O)[C@](C)(O)C[C@@H](C)C(=O)[C@H](C)[C@@H](O)[C@]1(C)O [ERYTHROMYCIN]	0.84 L/h/kg		2.7 L/kg	0.42 L/h/kg	4.38 L/h/kg	9.3 L/kg	0.93 L/kg	1.26 L/h/kg	0.89 L/kg
C#C[C@]1(O)CC[C@H]2[C@@H]3CCc4cc(O)ccc4[C@H]3[C@@H](OC)C[C@@]21C [MOXESTROL]	0.192 L/h/kg		0.63 L/kg	0.0204 L/h/kg	3.12 L/h/kg	1.4 L/kg	1.8 L/kg	0.312 L/h/kg	0.24 L/kg
O=C1CN=C(c2ccccc2Cl)c2cc([N+](=O)[O-])ccc2N1 [CLONAZEPAM]	0.84 L/h/kg		1.6 L/kg	0.096 L/h/kg	1.26 L/h/kg	3 L/kg	6.8 L/kg	0.66 L/h/kg	5.5 L/kg
CC(C)N(CCC(C(N)=O)(c1ccccc1)c1ccccn1)C(C)C (stereo not drawn) [DISOPYRAMIDE]	1.14 L/h/kg		2.3 L/kg	0.144 L/h/kg	2.04 L/h/kg	6.2 L/kg	2 L/kg	1.74 L/h/kg	0.78 L/kg
CO/N=C(\C(=O)N[C@@H]1C(=O)N2C(C(=O)[O-])=C(C[n+]3ccn4ncccc43)CS[C@H]12)c1nsc(N)n1 [CEFOZOPRAN]	0.114 L/h/kg		0.21 L/kg	0.09 L/h/kg	0.564 L/h/kg	0.2 L/kg	0.2 L/kg	0.18 L/h/kg	0.27 L/kg
C#CCCCC(=O)c1cc(C(C)(C)C)c(O)c(C(C)(C)C)c1 [TEBUFELONE]	1.02 L/h/kg		81 L/kg	0.594 L/h/kg	2.52 L/h/kg	10 L/kg	53 L/kg	1.92 L/h/kg	30 L/kg
CO[C@@]1(NC(=O)C2SC(=C(C(N)=O)C(=O)O)S2)C(=O)N2C(C(=O)O)=C(CSc3nnnn3C)CS[C@@H]21 (stereo partly drawn) [CEFOTETAN]	0.102 L/h/kg		0.25 L/kg	0.03 L/h/kg	0.78 L/h/kg	0.25 L/kg	0.17 L/kg	0.24 L/h/kg	0.13 L/kg
O=P(O)(O)C(Sc1ccc(Cl)cc1)P(=O)(O)O [TILUDRONIC ACID]	0.0498 L/h/kg		3 L/kg	0.018 L/h/kg	0.198 L/h/kg	15 L/kg	7 L/kg	0.03 L/h/kg	1 L/kg
COC(=O)[C@H]1[C@@H](OC(=O)c2ccccc2)C[C@@H]2CC[C@H]1N2C [COCAINE]	3.84 L/h/kg		3.8 L/kg	1.92 L/h/kg	15.6 L/h/kg	16 L/kg	7.4 L/kg	6.12 L/h/kg	
NC(=O)c1cc[n+](COC[n+]2ccccc2/C=N/O)cc1 [HI-6]	0.516 L/h/kg		0.26 L/kg	0.192 L/h/kg	0.588 L/h/kg	0.3 L/kg	0.34 L/kg	0.222 L/h/kg	0.39 L/kg
O=c1ccc2ccccc2o1 [COUMARIN]	2.04 L/h/kg		6.5 L/kg	1.02 L/h/kg	1.2 L/h/kg	1.3 L/kg	4.5 L/kg	1.32 L/h/kg	2.2 L/kg
CN(Cc1cnc2nc(N)nc(N)c2n1)c1ccc(C(=O)N[C@@H](CCC(=O)O)C(=O)O)cc1 [METHOTREXATE]	0.48 L/h/kg			0.15 L/h/kg	0.72 L/h/kg	0.4 L/kg	1.2 L/kg	0.072 L/h/kg	0.67 L/kg
O=C1NC(=O)C(c2ccccc2)(c2ccccc2)N1 [PHENYTOIN]	0.474 L/h/kg		1 L/kg	0.0342 L/h/kg	0.444 L/h/kg	0.64 L/kg	7.8 L/kg	0.168 L/h/kg	1.4 L/kg
CN1CCN(c2c(F)cc3c(=O)c(C(=O)O)cn(CCF)c3c2F)CC1 [FLEROXACIN]	0.24 L/h/kg		1.3 L/kg	0.144 L/h/kg	0.342 L/h/kg	1.3 L/kg	1.2 L/kg	0.096 L/h/kg	1.5 L/kg
N[C@H](C(=O)O)[C@@H]1CC(Cl)=NO1 [ACIVICIN]	0.198 L/h/kg		0.5 L/kg	0.0468 L/h/kg	0.312 L/h/kg	0.65 L/kg	0.56 L/kg	0.078 L/h/kg	0.58 L/kg

Structure (SMILES)	clearance [1]	Vdss [2]	Vd [3]	clearance [4]	clearance [5]	Vdss [6]	Vd [7]	clearance [8]	Vd [2]
CO[C@@]1(NC(=O)CSC(F)F)C(=O)N2C(C(=O)O)=C(CSc3nnnn3CCO)CO[C@@H]21 [FLOMOXEF]			0.32 L/kg			0.23 L/kg	0.3 L/kg		0.52 L/kg
C[C@@H](O)[C@H]1C(=O)N2C(C(=O)O)=C(COC(N)=O)S[C@H]12	0.282 L/h/kg		0.23 L/kg	0.432 L/h/kg	0.96 L/h/kg	0.05 L/kg	0.15 L/kg	0.462 L/h/kg	0.25 L/kg
N=C(N)c1ccc(C(=O)N[C@@H](Cc2ccc(O)cc2)C(=O)N2CCC(OCC(=O)O)CC2)cc1 [LAMIFIBAN]			0.75 L/kg			0.24 L/kg	0.29 L/kg		0.29 L/kg
Cn1cc(/C=C2/C(=O)N3C(C(=O)O)=CS[C@H]23)nn1			0.32 L/kg			1.3 L/kg	0.27 L/kg		0.28 L/kg
CC(C)n1c(/C=C/C(O)CC(O)CC(=O)O)c(-c2ccc(F)cc2)c2ccccc21 (stereo not drawn) [FLUVASTATIN]			0.7 L/kg			1 L/kg	3.7 L/kg		0.42 L/kg
NC(=O)c1csc([C@@H]2O[C@H](CO)[C@@H](O)[C@H]2O)n1 [TIAZOFURIN]			0.9 L/kg			2.5 L/kg	2 L/kg		0.9 L/kg
CC(C)(C)S(=O)(=O)C[C@@H](Cc1ccccc1)C(=O)N[C@@H](Cc1cnc[nH]1)C(=O)N[C@@H](CC1CCCCC1)[C@@H](O)[C@@H](O)C1CC1	1.2 L/h/kg		1.5 L/kg	0.6 L/h/kg		4.4 L/kg	1.7 L/kg	1.5 L/h/kg	0.84 L/kg
Cc1cn([C@H]2C[C@H](N=[N+]=[N-])[C@@H](CO)O2)c(=O)[nH]c1=O [ZIDOVUDINE]	0.9 L/h/kg		1 L/kg	1.44 L/h/kg	2.76 L/h/kg		1 L/kg	0.84 L/h/kg	
CN1C(C(=O)Nc2nccs2)=C(O)c2ccccc2S1(=O)=O [SUDOXICAM]			0.2 L/kg			0.2 L/kg	0.2 L/kg		0.2 L/kg
Cn1c(=O)c2c(ncn2C)n(C)c1=O [CAFFEINE]	0.186 L/h/kg		0.76 L/kg	0.12 L/h/kg		0.92 L/kg	0.83 L/kg	0.126 L/h/kg	0.73 L/kg
CC1(C)O[C@@H]2C[C@H]3[C@@H]4C[C@H](F)C5=CC(=O)C=C[C@]5(C)[C@H]4[C@@H](O)C[C@]3(C)[C@]2(C(=O)CO)O1 [FLUNISOLIDE]	1.14 L/h/kg		3.7 L/kg	0.72 L/h/kg	0.528 L/h/kg	3 L/kg	4 L/kg	0.774 L/h/kg	
C[C@@H](O)[C@H]1C(=O)N2C(C(=O)O)=C(SCCOC(N)=O)S[C@H]12 [Sch-34343]			0.22 L/kg			0.17 L/kg	0.17 L/kg		0.34 L/kg
CN1CCC[C@H]1c1cccnc1 [NICOTINE]	0.84 L/h/kg		3.3 L/kg	1.14 L/h/kg	3.96 L/h/kg	4.7 L/kg	1.5 L/kg	2.52 L/h/kg	
C[C@]12C=CC(=O)C=C1CC[C@@H]1[C@@H]2C(=O)C[C@@]2(C)[C@H]1CC[C@]2(O)C(=O)CO [PREDNISONE]	0.78 L/h/kg		2.1 L/kg	0.216 L/h/kg	9.78 L/h/kg	1.4 L/kg	1.6 L/kg	1.62 L/h/kg	
CC(C)NCC(O)COc1cccc2ccccc12 (stereo not drawn) [PROPRANOLOL]	0.84 L/h/kg		1.7 L/kg	0.9 L/h/kg		5.3 L/kg	0.6 L/kg		3.6 L/kg
O=C(c1ccccc1)c1ccc2n1CCC2C(=O)O (stereo not drawn) [KETOROLAC]	0.036 L/h/kg		0.33 L/kg		0.216 L/h/kg	0.56 L/kg	0.09 L/kg	0.078 L/h/kg	
COCCc1ccc(OCC(O)CNC(C)C)cc1 (stereo not drawn) [METOPROLOL]	1.8 L/h/kg		4.5 L/kg	0.9 L/h/kg	11.1 L/h/kg	7 L/kg	3 L/kg	1.38 L/h/kg	
COC(=O)C1=C(C)NC(C)=C(C(=O)OCCN(C)Cc2ccccc2)C1c1cccc([N+](=O)[O-])c1 (stereo not drawn) [NICARDIPINE]			1.3 L/kg			1.3 L/kg	1.9 L/kg		0.64 L/kg

Reference: ChEMBL document CHEMBL1614629, “Extrapolation of human pharmacokinetic parameters from rat, dog, and monkey data: Molecular properties associated with extrapolative success or failure” (J Pharm Sci, 2005)
